The text below walks through data of US20210052679A1, “PROBIOTIC DELIVERY OF GUIDED ANTIMICROBIAL PEPTIDES” (priority 2019, published 2021).

The test system of assay [1] is Staphylococcus aureus and Staphylococcus epidermidis. Nature of the assay: In vitro bactericidal activity assay, targeted staphylococci. Type of assay: cell-based. To be noted: S. aureus and S. epidermidis. The protocol: The Ulp-1 protease-cleaved proteins were tested for antimicrobial assays against four strains of bacteria: Staphylococcus aureus, Staphylococcus epidermidis, Enterococcus faecalis and Bacillus subtilis. These four species were selected because they are gram positive and the AMPs plectasin and eurocin are specifically active against gram positive bacteria (Mygind et al. 2005, Oeemig et al. 2012). The component controls were free SUMO protein and synthetically produced A12C peptide. Vancomycin was used as the positive control. The standard protocol for a microtiter plate assay with serial dilution was used in which serial 2-fold dilutions of test peptide were made across a 96-well plate containing uniform bacterial inoculum across the peptide dilutions. After bacterial growth in the presence of peptide, cell viability was assayed with resazurin. Experiments with all peptides against all bacterial species were performed with >5 replicates each.

Assay [2] relates to H. pylori. Briefly: Prophylactic control of H. pylori in mice (qPCR of stomach fluid). Type of assay: in vivo, mouse. Particulars: Day 12; probiotic pre-treatment before H. pylori challenge; FIG. 15. The protocol: (§1) The L. lactis cultures were propagated overnight as described above. The overnight cultures were spun down at 4000 g for 15 min at 4° C. The pellets were resuspended in sterile PBS. H. pylori stocks were grown overnight on Blood-TS agar as described above and then scraped by a sterile loop and resuspended in sterile PBS. The either bacterial suspension were fed to the mice using 1.5 ga oral gavage needle not exceeding half their stomach volume (˜250 μL). The colony forming units (CFUs) of the resuspension being fed were determined by diluting the resuspension 1/1000 and 1/10000 times and plating on appropriate plates. Pre- and post-inoculation samples from the mouse stomach were collected by flushing their stomach with excess PBS (˜300 μL) and the stomach fluid was collected by reversing the oral gavage injection until the vacuum was maintained.
The supernatants were collected and plated in a 96-well plate and qPCR was performed with primers for the VacA gene to quantify for H. pylori and primers for the acma gene to quantify for L. lactis. Standard curves for each bacterium against their CT values were constructed by including different dilutions of the overnight cultures of the respective bacteria (1/10, 1/100, 1/1000, 1/10000) in the qPCR and plating those dilutions on respective plates to determine the corresponding CFU values. Each data point represents at least 3 replicate mice. […]
For orientation: In qPCR the cycle at which signal appears reflects the starting amount.

The subject of assay [3] is H. pylori. Nature of the assay: L. lactis/H. pylori co-culture and qPCR on VacA gene. The format is cell-based, Helicobacter pylori. Particulars: 24 h co-culture with L. lactis expressing AMP/gAMP; FIG. 10. The protocol:
In the co-cultures, different dilutions of L. lactis were used but each well had 10 μl of H. pylori culture (˜3000 CFUs). The L. lactis secreted AMP, gAMP or contained an empty expression vector. Alyteserin and CRAMP were the AMPs tested. These were constructed either genetically fused to the multimerin-derived guide peptide (guide AMP or gAMP) or not (AMP). The amount of H. pylori present in the co-culture at any given time point was measured by qPCR, using primers specific for the VacA gene itself, which codes for the receptor protein to which the gAMP binds. The entire experiment was run in triplicate and the growth of H. pylori after 24 h in the presence of L. lactis expressing various AMPs or gAMPs is shown in FIG. 10.
L. lactis AMP/gAMP clones were propagated from glycerol stocks and grown in GM17 broth overnight with erythromycin (5 μg/ml) with no shaking. H. pylori stocks were first propagated on Blood-TS agar overnight with microaerobic condition and >5% CO2 environment. Then colonies from the plate were transferred to a TS broth with newborn calf serum (5%) and grown overnight under microaerobic condition and >5% CO2 environment. The L. lactis cultures were serially diluted in a 96-well culture plate with TSB broth to make up a volume of 100 μL. To each well, 10 μL of the overnight H. pylori culture was added and each well volume was brought up to 200 μL with more TS broth. The plate was left to grow overnight in a microaerobic environment with >5% CO2. After 24 h, well contents from the culture plate were transferred to a 96-well PCR plate. […] The qPCR was done using primers for VacA gene to quantify H. pylori (forward: 5′-[…]-3′ (SEQ ID NO:12), reverse: 5′-[…]-3′ (SEQ ID NO:13) and primers for acma gene for quantifying L. lactis. Standard curves for H. pylori and L. lactis were constructed by determining CT values for different dilutions of the overnight cultures of the respective bacteria (1/10, 1/100, 1/1000, 1/10000) in the qPCR plates, the CFUs for the dilutions were determined by plating on their respective agar plates.

Assay [4] concerns H. pylori. Nature of the assay: Therapeutic control of H. pylori in mice (qPCR of stomach fluid). Type of assay: in vivo, mouse. Particulars: at Day 10, within each AMP/gAMP pair.
Source text: These mice were inoculated with H. pylori and the H. pylori was allowed to establish itself in the mouse stomach for 3 days, with daily inoculations to ensure establishment. The mice were then given L. lactis secreting AMP or gAMP to therapeutically treat the H. pylori infection. Stomach samples were collected on Day 0 before H. pylori inoculation; resuspended H. pylori were fed by oral gavage once daily for 3 consecutive days; stomach samples were then collected on Day 5 to test for H. pylori presence and on Day 5 resuspended L. lactis were fed to the mice; subsequent stomach samples were collected on Day 8 and 10.
as §1
The supernatants were collected and plated in a 96-well plate and qPCR was performed with primers for the VacA gene to quantify for H. pylori and primers for the acma gene to quantify for L. lactis. Standard curves for each bacterium against their CT values were constructed by including different dilutions of the overnight cultures of the respective bacteria (1/10, 1/100, 1/1000, 1/10000) in the qPCR and plating those dilutions on respective plates to determine the corresponding CFU values. Each data point represents at least 3 replicate mice.
This was used to generate CFU/μl data from qPCR CT values in FIG. 14.

The next assay relates to E. coli. Briefly: E. coli viability with supernatants of Lactococcus lactis broth cultures. The format is cell-based, Escherichia coli. Particulars: L. lactis culture supernatant, 4 hours of exposure; FIG. 8. The text has this:
This is reported in FIG. 8 as the survival of E. coli in the presence of broth culture of Lactococcus lactis secreting antimicrobial peptide with or without a guide peptide. […] It should be noted that the legend is in reverse order of the lines, top to bottom, with the upper line in the graph being the buffer control and the lower line being vancomycin. To obtain the results shown in FIG. 8, cultures of Lactococcus lactis containing either the empty pT1bin1 vector, pT1bin1 harboring the antimicrobial peptide laterosporulin, or pT1bin1 harboring laterosporulin genetically fused to the guide peptide from multimerin were centrifuged to remove bacterial cells and the resulting supernatants were added to separate starter cultures of E. coli to check for inhibition of E. coli growth. The starter culture used supplying all replicates consisted of 500 μl of overnight culture of E. coli diluted in 50 ml of LB broth. […] E. coli viability was measured by plating onto LB agar plates the cultures in each well after 4 hours of exposure to supernatant or antibiotic. The resulting colonies appearing on the plates were recorded, with the undiluted buffer control treatment being set to 100% and all other treatments being converted to a fraction of this value, as plotted on the y-axis.

Another assay deals with Lactobacillus plantarum. Nature of the assay: Off-target co-culture with L. lactis, qPCR. Type of assay: cell-based. Particulars: 24 hours; probiotic at 100,000/μl CFU level; FIG. 11. The protocol: L. lactis AMP/gAMP clones were propagated from glycerol stocks and grown in GM17 broth overnight with erythromycin (5 μg/ml) with no shaking. H. pylori stocks were first propagated on Blood-TS agar overnight with microaerobic condition and >5% CO2 environment. Then colonies from the plate were transferred to a TS broth with newborn calf serum (5%) and grown overnight under microaerobic condition and >5% CO2 environment. The L. lactis cultures were serially diluted in a 96-well culture plate with TSB broth to make up a volume of 100 μL. To each well, 10 μL of the overnight H. pylori culture was added and each well volume was brought up to 200 μL with more TS broth. The plate was left to grow overnight in a microaerobic environment with >5% CO2. After 24 h, well contents from the culture plate were transferred to a 96-well PCR plate. That PCR plate was sealed and heated for 15 min at 100° C. and chilled at 4° C. for 5 min. Then the plate was centrifuged at 2000 g for 2 min and the supernatant was used as the template for qPCR. The qPCR was done using primers for VacA gene to quantify H. pylori (forward: 5′-[…]-3′ (SEQ ID NO:12), reverse: 5′-[…]-3′ (SEQ ID NO:13) and primers for acma gene for quantifying L. lactis. Standard curves for H. pylori and L. lactis were constructed by determining CT values for different dilutions of the overnight cultures of the respective bacteria (1/10, 1/100, 1/1000, 1/10000) in the qPCR plates, the CFUs for the dilutions were determined by plating on their respective agar plates.
The experimental design was identical to that described above in Example 3, with the exception of the off-target bacterium replacing the targeted H. pylori. The off-target bacteria used were Lactobacillus plantarum (gram positive) and Escherichia coli (gram negative).

On to A12C-plectasin, for which the “toxicity/activity against targeted staphylococci” value in assay [1] was “highly active”.

With “Alyteserin (GLKDIFKAGLGSLVKGIAAHVAN; alyteserin AMP)”, the “H. pylori in mouse stomach fluid” value in the assay with H. pylori [2] came to 2000 CFU/μl. Further, the “H. pylori in co-culture (qPCR on VacA gene)” value (shortened to “H. pylori in co-culture”) in the assay on H. pylori [3] is recorded as “not very effective unless fused to the guide peptide”. Further, the “more H. pylori with the AMP versus the gAMP” value in the assay on H. pylori [4] is 15 fold.

Take “CRAMP (ISRLAGLLRKGGEKIGEKLKKIGQKIKNFFQKLVPQPE; cathelin-related anti-microbial peptide (CRAMP))”: the “H. pylori in co-culture” value in the assay with H. pylori [3] was “equally toxic”. Moreover, the “more H. pylori with the AMP versus the gAMP” value in the assay with H. pylori [4] stood at 15 fold.

Take “Laterosporulin (ACQCPDAISGWTHTDYQCHGLENKMYRHVYAICMNGTQVYCRTEWGSSC; laterosporulin AMP)”: the “viability of E. coli vs empty vector baseline” value with E. coli is listed as “significant decrease in viability”. For the same molecule, the “more H. pylori with the AMP versus the gAMP” value with H. pylori [4] is on record as 2.5 fold.

Take “MM1-Alyteserin (MQKMTDQVNYQAMKLTLLQKSGGGSGLKDIFKAGLGSLVKGIAAHVAN; MM1-alyteserin gAMP)”: the “H. pylori in mouse stomach fluid” value with H. pylori [2] was determined as 1500 CFU/μl. Besides, the “Lactobacillus plantarum level after co-culture” value (“Lactobacillus plantarum level” for short) in the assay with Lactobacillus plantarum is 10,000 CFU/μl.

B1: MM1-Laterosporulin (protein)
chain: MQKMTDQVNYQAMKLTLLQKSGGGSACQCPDAISGWTHTDYQCHGLENKMYRHVYAICMNGTQVYCRTEWGSSC
modifications: MM1-laterosporulin gAMP
Consider B1, for which the “Lactobacillus plantarum level” value with Lactobacillus plantarum is on record as 10,000 CFU/μl. Besides, the “viability of E. coli vs empty vector baseline” value in the assay on E. coli is on record as “no significant difference”.

B2: MM1-CRAMP (protein)
chain: MQKMTDQVNYQAMKLTLLQKSGGGSISRLAGLLRKGGEKIGEKLKKIGQKIKNFFQKLVPQPE
modifications: MM1-CRAMP gAMP
For the molecule B2, in the assay with H. pylori [3], the “H. pylori in co-culture” value was “equally toxic”. In addition, in the assay with Lactobacillus plantarum, the “Lactobacillus plantarum level” value is 2500 CFU/μl.
